# Patent US12350270B2, “Antimalarial agents” (Merck Sharp & Dohme LLC, priority 2019, dated 2025)
# Test system: parasites (ring stage, in human red blood cell culture)
# Test: Parasite LDH growth assay (antiparasite potency, Parasite Assay)
# Assay type: cell-based, Plasmodium falciparum
# Settings: 0.7% rings, 2% haematocrit, 72 hours at 37° C., LDH readout of parasite growth
# How it was run: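 Growth was read by an LDH assay after a freeze–thaw cycle (−80 °C overnight, 4 h thaw at RT). Before that, parasites grew with compound for 72 h at 37 °C under gassed, humidified conditions. The input was a ring-stage culture adjusted to 0.7% parasitemia and 2% haematocrit in serum (5%)/albumax (0.5%)-supplemented RPMI-Hepes.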
row,SMILES,EC50
1,"CCC1(CC)CC(=O)N(C2c3cc(C(=O)N[C@@H]4c5ccccc5C[C@H]4O)ccc3OC2(C)C)C(=N)N1 (stereo partly drawn) [Example 127B, 3-(4,4-diethyl-2-imino-6-oxo-hexahydropyrimidin-1-yl)-N-[(1R,2R)-2-hydroxyindan-1-yl]-2,2-dimethyl-3H-benzofuran-5-carboxamide]",222 nM

# Same assay, conditions: Plasmodium falciparum, Erythrocyte, 72 h, 0.7% rings, 2% haematocrit, 72 hours at 37° C., LDH readout of parasite growth
row,SMILES,EC50
1,"CC1(C)CC(=O)N([C@@H]2CC(C)(C)c3ccc(C(=O)N[C@H]4CC(C)(C)Oc5ccccc54)cc32)C(=N)N1 [Example 113, (3R)-N-[(4S)-2,2-dimethylchroman-4-yl]-3-(2-imino-4,4-dimethyl-6-oxo-hexahydropyrimidin-1-yl)-1,1-dimethyl-indane-5-carboxamide]",16.4 nM
2,"CCC1(CC)CC(=O)N([C@@H]2CCCc3ccc(C(=O)N[C@@H]4c5ccccc5C[C@@]4(C)O)cc32)C(=N)N1 [Example 114, (4R)-4-(4,4-diethyl-2-imino-6-oxo-hexahydropyrimidin-1-yl)-N-[(1R,2R)-2-hydroxy-2-methyl-indan-1-yl]tetralin-6-carboxamide]",1.8 nM
3,"CCC1(CC)CC(=O)N([C@@H]2C[C@@H](OC)c3ccc(C(=O)N[C@@H]4c5ccccc5C[C@H]4O)cc32)C(=N)N1 [Example 115, (1R,3R)-3-(4,4-diethyl-2-imino-6-oxo-hexahydropyrimidin-1-yl)-N-[(1R,2R)-2-hydroxyindan-1-yl]-1-methoxy-indane-5-carboxamide]",3.6 nM
4,"CCC1(CC)CC(=O)N([C@H]2C[C@@H](OC)c3ccc(C(=O)N[C@@H]4c5ccccc5C[C@H]4O)cc32)C(=N)N1 [Example 116, (1R,3S)-3-(4,4-diethyl-2-imino-6-oxo-hexahydropyrimidin-1-yl)-N-[(1R,2R)-2-hydroxyindan-1-yl]-1-methoxy-indane-5-carboxamide]",210 nM
5,"CCC1(CC)CC(=O)N([C@@H]2C[C@H](OC)c3ccc(C(=O)N[C@@H]4c5ccccc5C[C@H]4O)cc32)C(=N)N1 [Example 117, (1S,3R)-3-(4,4-diethyl-2-imino-6-oxo-hexahydropyrimidin-1-yl)-N-[(1R,2R)-2-hydroxyindan-1-yl]-1-methoxy-indane-5-carboxamide]",2.5 nM
6,"CCC1(CC)CC(=O)N([C@H]2c3cc(C(=O)N[C@@H]4c5ccccc5C[C@H]4O)ccc3OC[C@H]2C)C(=N)N1 [Example 118, (3S,4R)-4-(4,4-diethyl-2-imino-6-oxo-hexahydropyrimidin-1-yl)-N-[(1R,2R)-2-hydroxyindan-1-yl]-3-methyl-chromane-6-carboxamide]",0.9 nM
7,"CCC1(CC)CC(=O)N([C@@H]2CCOc3ccc(C(=O)NC4CCCOc5ccccc54)cc32)C(=N)N1 (stereo partly drawn) [Example 119, (4R)-4-(4,4-diethyl-2-imino-6-oxo-hexahydropyrimidin-1-yl)-N-(2,3,4,5-tetrahydro-1-benzoxepin-5-yl)chromane-6-carboxamide]",2.8 nM
8,"CCC1(CC)CC(=O)N([C@H]2c3cc(C(=O)N[C@@H]4c5ccccc5C[C@H]4O)ccc3OC[C@@H]2C)C(=N)N1 [Example 120, (3R,4R)-4-(4,4-diethyl-2-imino-6-oxo-hexahydropyrimidin-1-yl)-N-[(1R,2R)-2-hydroxyindan-1-yl]-3-methyl-chromane-6-carboxamide]",0.8 nM
9,"CC[C@]1(C)CC(=O)N([C@@H]2CCc3ccc(C(=O)N[C@@H]4c5ccccc5OC(C)(C)[C@H]4O)cc32)C(=N)N1 [Example 121, (3R)-3-[(4R)-4-ethyl-2-imino-4-methyl-6-oxo-hexahydropyrimidin-1-yl]-N-[(3S,4R)-3-hydroxy-2,2-dimethyl-chroman-4-yl]indane-5-carboxamide]",0.6 nM
10,"CCC1(CC)CC(=O)N([C@@H]2CCc3ccc(C(=O)N[C@@H]4c5ccccc5OC[C@]4(C)O)cc32)C(=N)N1 [Example 122, (3R)-3-(4,4-diethyl-2-imino-6-oxo-hexahydropyrimidin-1-yl)-N-[(3R,4R)-3-hydroxy-3-methyl-chroman-4-yl]indane-5-carboxamide]",3.9 nM
11,"CCC1(CC)CC(=O)N([C@@H]2CCc3ccc(C(=O)N[C@@H]4c5ccccc5OC[C@@]4(C)O)cc32)C(=N)N1 [Example 123, (3R)-3-(4,4-diethyl-2-imino-6-oxo-hexahydropyrimidin-1-yl)-N-[(3S,4R)-3-hydroxy-3-methyl-chroman-4-yl]indane-5-carboxamide]",2.8 nM
12,"CC1(C)CC(=O)N([C@@H]2CC(C)(C)c3ccc(C(=O)N[C@@H]4c5ccccc5OC[C@@]4(C)O)cc32)C(=N)N1 [Example 124, (3R)-N-[(3S,4R)-3-hydroxy-3-methyl-chroman-4-yl]-3-(2-imino-4,4-dimethyl-6-oxo-hexahydropyrimidin-1-yl)-1,1-dimethyl-indane-5-carboxamide]",57.5 nM
13,"CCC1(CC)CC(=O)N([C@@H]2CCCc3ccc(C(=O)N[C@@H]4c5ccccc5OC[C@H]4O)cc32)C(=N)N1 [Example 125, (4R)-4-(4,4-diethyl-2-imino-6-oxo-hexahydropyrimidin-1-yl)-N-[(3S,4R)-3-hydroxychroman-4-yl]tetralin-6-carboxamide]",2.1 nM
14,"CC[C@]1(C)CC(=O)N([C@H]2c3cc(C(=O)N[C@@H]4c5ccccc5C[C@H]4O)ccc3OCC2(C)C)C(=N)N1 [Example 126, (4R)-4-[(4R)-4-ethyl-2-imino-4-methyl-6-oxo-hexahydropyrimidin-1-yl]-N-[(1R,2R)-2-hydroxyindan-1-yl]-3,3-dimethyl-chromane-6-carboxamide]",14.3 nM
15,"CCC1(CC)CC(=O)N(C2c3cc(C(=O)N[C@@H]4c5ccccc5C[C@H]4O)ccc3OC2(C)C)C(=N)N1 (stereo partly drawn) [Example 127A, 3-(4,4-diethyl-2-imino-6-oxo-hexahydropyrimidin-1-yl)-N-[(1R,2R)-2-hydroxyindan-1-yl]-2,2-dimethyl-3H-benzofuran-5-carboxamide]",202 nM
16,"CCC1(CC)CC(=O)N([C@@H]2C[C@@H](C)Oc3ccc(C(=O)N[C@@H]4c5ccccc5C[C@H]4O)cc32)C(=N)N1 [Example 128, (2R,4R)-4-(4,4-diethyl-2-imino-6-oxo-hexahydropyrimidin-1-yl)-N-[(1R,2R)-2-hydroxyindan-1-yl]-2-methyl-chromane-6-carboxamide]",2.8 nM
17,"CC[C@]1(C)CC(=O)N([C@@H]2C[C@@H](C)Oc3ccc(C(=O)N[C@@H]4c5ccccc5C[C@@]4(C)O)cc32)C(=N)N1 [Example 129, (2R,4R)-4-[(4R)-4-ethyl-2-imino-4-methyl-6-oxo-hexahydropyrimidin-1-yl]-N-[(1R,2R)-2-hydroxy-2-methyl-indan-1-yl]-2-methyl-chromane-6-carboxamide]",3.5 nM
18,"CC[C@]1(C)CC(=O)N([C@@H]2C[C@@H](C)c3ccc(C(=O)N[C@@H]4c5ccccc5OC[C@]4(C)O)cc32)C(=N)N1 [Example 130, (1R,3R)-3-[(4R)-4-ethyl-2-imino-4-methyl-6-oxo-hexahydropyrimidin-1-yl]-N-[(3R,4R)-3-hydroxy-3-methyl-chroman-4-yl]-1-methyl-indane-5-carboxamide]",2.1 nM
19,"CC[C@]1(C)CC(=O)N([C@@H]2C[C@@H](C)c3ccc(C(=O)N[C@@H]4c5ccccc5OC[C@@]4(C)O)cc32)C(=N)N1 [Example 131, (1R,3R)-3-[(4R)-4-ethyl-2-imino-4-methyl-6-oxo-hexahydropyrimidin-1-yl]-N-[(3S,4R)-3-hydroxy-3-methyl-chroman-4-yl]-1-methyl-indane-5-carboxamide]",2 nM
20,"CCC1(CC)CC(=O)N([C@@H]2CCCOc3ccc(C(=O)N[C@@H]4c5ccccc5C[C@H]4O)cc32)C(=N)N1 [Example 132, (5R)-5-(4,4-diethyl-2-imino-6-oxo-hexahydropyrimidin-1-yl)-N-[(1R,2R)-2-hydroxyindan-1-yl]-2,3,4,5-tetrahydro-1-benzoxepine-7-carboxamide]",1.6 nM
21,"CC1(C)CC(=O)N(C2c3cc(C(=O)N[C@H]4CC(C)(C)Oc5ccccc54)ccc3OC2(C)C)C(=N)N1 (stereo partly drawn) [Example 134, N-[(4S)-2,2-dimethylchroman-4-yl]-3-(2-imino-4,4-dimethyl-6-oxo-hexahydropyrimidin-1-yl)-2,2-dimethyl-3H-benzofuran-5-carboxamide]",8.8 nM
22,"C[C@@H]1Cc2ccc(C(=O)N[C@@H]3c4ccccc4OC(C)(C)[C@H]3O)cc2[C@@H]1N1C(=N)NC(C)(C)CC1=O [Example 135, (2R,3R)-N-[(3S,4R)-3-hydroxy-2,2-dimethyl-chroman-4-yl]-3-(2-imino-4,4-dimethyl-6-oxo-hexahydropyrimidin-1-yl)-2-methyl-indane-5-carboxamide]",0.9 nM
23,"C[C@H]1Cc2ccc(C(=O)N[C@@H]3c4ccccc4OC(C)(C)[C@H]3O)cc2[C@@H]1N1C(=N)NC(C)(C)CC1=O [Example 136, (2S,3R)-N-[(3S,4R)-3-hydroxy-2,2-dimethyl-chroman-4-yl]-3-(2-imino-4,4-dimethyl-6-oxo-hexahydropyrimidin-1-yl)-2-methyl-indane-5-carboxamide]",1.3 nM
24,"C[C@H]1Cc2ccc(C(=O)N[C@@H]3c4ccccc4OC(C)(C)[C@H]3O)cc2[C@H]1N1C(=N)NC(C)(C)CC1=O [Example 137, (2S,3S)-N-[(3S,4R)-3-hydroxy-2,2-dimethyl-chroman-4-yl]-3-(2-imino-4,4-dimethyl-6-oxo-hexahydropyrimidin-1-yl)-2-methyl-indane-5-carboxamide]",239 nM
25,"C[C@@H]1C[C@@H](N2C(=N)NC(C)(C)CC2=O)c2cc(C(=O)N[C@@H]3c4ccccc4OC(C)(C)[C@H]3O)ccc21 [Example 138, (1R,3R)-N-[(3S,4R)-3-hydroxy-2,2-dimethyl-chroman-4-yl]-3-(2-imino-4,4-dimethyl-6-oxo-hexahydropyrimidin-1-yl)-1-methyl-indane-5-carboxamide]",0.9 nM
26,"C[C@H]1C[C@H](N2C(=N)NC(C)(C)CC2=O)c2cc(C(=O)N[C@@H]3c4ccccc4OC(C)(C)[C@H]3O)ccc21 [Example 139, (1S,3S)-N-[(3S,4R)-3-hydroxy-2,2-dimethyl-chroman-4-yl]-3-(2-imino-4,4-dimethyl-6-oxo-hexahydropyrimidin-1-yl)-1-methyl-indane-5-carboxamide]",180 nM
